Experimental data reported in US20220257592A1, “METHODS OF TREATING CANCER” (HOFFMANN-LA ROCHE INC., priority 2019, published 2022).
Marks after values point to notes of the source that are not given here.

Experiment: Clinical trial safety, integrated analysis of ALKA, STARTRK-1, STARTRK-2, STARTRK-NG (N=504)
Text: The following categories of frequency have been used: very common ≥1/10, common (≥1/100 to <1/10), uncommon (≥1/1,000 to <1/100), rare (≥1/10,000 to <1/1000), very rare (<1/10,000).

[1] = patients less than 65 years old

For `CN1CCN(c2ccc(C(=O)Nc3n[nH]c4ccc(Cc5cc(F)cc(F)c5)cc34)c(NC3CCOCC3)c2)CC1` [Entrectinib, N-[5-(3,5-difluorobenzyl)-1H-indazol-3-yl]-4-(4-methyl-piperazin-1-yl)-2-(tetrahydro-pyran-4-ylamino)-benzamide], the “Myalgia, Frequency Category (All Grades)” value (N = 504) was “very common (very common ≥1/10)”, the “Myalgia, Grade ≥3” value (N = 504) was 0.6% and the “Nausea, All Grades” value (N = 504) was 32.1%. The “Nausea, Frequency Category (All Grades)” value (N = 504) was “very common (very common ≥1/10)”, the “Nausea, Grade ≥3” value (N = 504) was 0.8% and the “Neutropenia, All Grades” value (N = 504) was 11.3%. The “Neutropenia, Frequency Category (All Grades)” value (N = 504) was “very common (very common ≥1/10)”, the “Neutropenia, Grade ≥3” value (N = 504) was 4.4% and the “Pain, All Grades” value (N = 504) was 24.4%. The “Pain, Frequency Category (All Grades)” value (N = 504) was “very common (very common ≥1/10)”, the “Pain, Grade ≥3” value (N = 504) was 1.6% and the “Peripheral Sensory Neuropathy, Frequency Category (All Grades)” value (N = 504) was “very common (very common ≥1/10)”. For the same compound, the “Peripheral sensory neuropathy, All Grades” value (N = 504) was 15.7%, the “Peripheral sensory neuropathy, Grade ≥3” value (N = 504) was 1.0% and the “Pyrexia, All Grades” value (N = 504) was 20.0%. For the same compound, the “Pyrexia, Frequency Category (All Grades)” value (N = 504) was “very common (very common ≥1/10)”, the “Pyrexia, Grade ≥3” value (N = 504) was 0.8% and the “Rash, All Grades” value (N = 504) was 11.5%. The “Rash, Frequency Category (All Grades)” value (N = 504) was “very common (very common ≥1/10)”, the “Rash, Grade ≥3” value (N = 504) was 1.4% and the “Sleep disturbances, All Grades” value (N = 504) was 13.5%. For the same compound, the “Sleep disturbances, Frequency Category (All Grades)” value (N = 504) was “very common (very common ≥1/10)”, the “Sleep disturbances, Grade ≥3” value (N = 504) was 0.4% and the “Syncope, All Grades” value (N = 504) was 4.6%. The “Syncope, Frequency Category (All Grades)” value (N = 504) was “common (common (≥1/100 to <1/10))”, the “Syncope, Grade ≥3” value (N = 504) was 3.0% and the “Tumor lysis syndrome, All Grades” value (N = 504) was 0.2%. For the same compound, the “Tumor lysis syndrome, Frequency Category (All Grades)” value (N = 504) was “uncommon (uncommon (≥1/1,000 to <1/100))”, the “Urinary tract infection, All Grades” value (N = 504) was 12.7% and the “Urinary tract infection, Frequency Category (All Grades)” value (N = 504) was “very common (very common ≥1/10)”. For the same compound, the “Urinary tract infection, Grade ≥3” value (N = 504) was 2.6%, the “Vision Blurred, Frequency Category (All Grades)” value (N = 504) was “very common (very common ≥1/10)” and the “Vision Blurred, Grade ≥3” value (N = 504) was 0.4%. For the same compound, the “Vomiting, All Grades” value (N = 504) was 23.2%, the “Vomiting, Frequency Category (All Grades)” value (N = 504) was “very common (very common ≥1/10)” and the “Vomiting, Grade ≥3” value (N = 504) was 1.2%. The “Weight increased, All Grades” value (N = 504) was 26.4%, the “Weight increased, Frequency Category (All Grades)” value (N = 504) was “very common (very common ≥1/10)” and the “Weight increased, Grade ≥3” value (N = 504) was 7.3%. The “Ataxia, All Grades” value (N = 504, ataxia, balance disorder, gait disturbances) was 15.7%, the “Vision Blurred, All Grades” value (N = 504, diplopia, vision blurred, visual impairment) was 11.9% and the “Entrectinib interrupted due to fractures” value (adult patients) was 36.0%. For the same compound, the “Grade 3 or 4 bone fractures” value (adult patients) was 1.9%, the “Grade 3 or 4 headache” value (adult patients) was 0.6% and the “Grade 3 or 4 neutropenia” value (adult patients) was 3.4%. The “Grade 3 or 4 weight increased” value (adult patients) was 6.9%, the Fractures (adult patients (N=475)) was 5.3% and the “Median time to fracture” value (adults, range: 0.26 months to 18.5 months) was 3.42 months. For the same compound, the Ataxia (elderly (65 years or older)) was 23.8%, the Blood creatinine increased (elderly (65 years or older)) was 31.5% and the Dizziness (elderly (65 years or older)) was 48.5%. The Hypotension (elderly (65 years or older)) was 21.5%, the “Bilateral femoral neck fractures” value (human, in vivo) was 2 pediatric patients and the “Cognitive disorders, Grade 3 events” value (human, in vivo) was 4.4%. The “Cognitive symptoms: amnesia” value (human, in vivo) was 2.8%, the “Cognitive symptoms: cognitive disorders” value (human, in vivo) was 6.3% and the “Cognitive symptoms: confusional state” value (human, in vivo) was 7.3%. The “Cognitive symptoms: delirium” value (human, in vivo) was 0.8%, the “Cognitive symptoms: disturbance in attention” value (human, in vivo) was 3.8% and the “Cognitive symptoms: hallucination” value (human, in vivo) was 1.0%. The “Cognitive symptoms: hallucination visual” value (human, in vivo) was 0.4%, the “Cognitive symptoms: memory impairment” value (human, in vivo) was 4.2% and the “Cognitive symptoms: mental disorder” value (human, in vivo) was 0.2%. For the same compound, the “Cognitive symptoms: mental status changes” value (human, in vivo) was 1.2%, the “Discontinuation due to fractures” value (human, in vivo) was “No patients discontinued” and the “Eye disorders: diplopia” value (human, in vivo) was 2.6%. For the same compound, the “Eye disorders: vision blurred” value (human, in vivo) was 8.5%, the “Eye disorders: visual impairment” value (human, in vivo) was 1.6% and the “Overall safety profile in elderly patients vs patients younger than 65 years” value (human, in vivo) was “similar”. For the same compound, the “Patients recovered from ataxia” value (human, in vivo) was 67.1%, the “Patients recovered from peripheral neuropathy” value (human, in vivo) was 55.7% and the “Patients recovered from the eye disorder events” value (human, in vivo) was 61.7%. The “Dyspnea, Grade ≥3” value (human, in vivo, 5.5 months) was 5.8* %, the “Lung infection, Grade ≥3” value (human, in vivo, 5.5 months) was 6.0* % and the “Tumor lysis syndrome, Grade ≥3” value (human, in vivo, 5.5 months) was 0.2* %. It also gave an Ataxia [1] of 12.8%, a Blood creatinine increased [1] of 23.3% and a Dizziness [1] of 36.6%. The Hypotension [1] was 14.7%, the “QTcF interval of ≥500 ms” value (patients with at least one post-baseline ECG assessment, 12 patients) was 2.8% and the “QTcF interval prolongation of >60 ms after starting entrectinib” value (patients with at least one post-baseline ECG assessment, 17 patients) was 4.0%. The Cognitive disorder events (patients with brain metastases at baseline) was 29.7%, the Cognitive disorder events (patients without brain metastases) was 23.1% and the “Entrectinib interrupted due to fractures” value (pediatric patients) was 33.3%. For the same compound, the “Grade 3 or 4 bone fractures” value (pediatric patients) was 12.5%, the “Grade 3 or 4 headache” value (pediatric patients) was 6.3% and the “Grade 3 or 4 neutropenia” value (pediatric patients) was 28.1%. For the same compound, the “Grade 3 or 4 weight increased” value (pediatric patients) was 21.9%, the Fractures (pediatric patients (N=29)) was 20.7% and the “Median time to fracture” value (pediatric patients, range: 1.77 months to 7.39 months) was 3.38 months. For the same compound, the “Disturbance in attention of Grade 1 severity” value (pediatric population (1/29)) was 3.4%, the “Eye disorders, median duration” value (range 0.03 months to 14.49 months) was 1.02 months and the “Peripheral sensory neuropathy, median time to onset” value (range 0.03 months to 20.93 months) was 0.49 months. For the same compound, the “Ataxia, median duration” value (range: 0.03 months to 11.99 months) was 0.66 months, the “Eye disorders, median time to onset” value (range: 0.03 months to 21.59 months) was 1.87 months and the “Ataxia, median time to onset” value (range: 0.03 months to 28.19 months) was 0.36 months. The “Peripheral sensory neuropathy, median duration” value (range: 0.07 months to 6.01 months) was 0.76 months.
